Test results taken from ChEMBL document CHEMBL5465560, “Selectivity Literature for EUbOPEN Chemogenomic Library” (2024).

Assays:
[1] = molecular target: Bromodomain adjacent to zinc finger domain protein 2A (Homo sapiens, UniProt Q9UIF9)
[2] = molecular target: Calcium/calmodulin-dependent protein kinase type II subunit delta (Homo sapiens) (UniProt Q13557); assay: Selectivity interaction (KinomeScan (DiscoverX)) EUB0000595a CAMK2D; details: at 10 µM
[3] = molecular target: Platelet-derived growth factor receptor beta (Homo sapiens, UniProt P09619); assay: Selectivity interaction (KinomeScan (DiscoverX)) EUB0000595a PDGFRB; details: at 10 µM
[4] = molecular target: Vascular endothelial growth factor receptor 3 (Homo sapiens, UniProt P35916); assay: Selectivity interaction (Kinase screening (Nanosyn)) EUB0000604a FLT4
[5] = tested on: Hepatocyte growth factor receptor (Homo sapiens), P08581 [M1250T]; assay: (§1) Selectivity interaction (Ambit KINOMEscan and KiNATiv profiling in Jurkat cells) EUB0000090b MET; assay type: cell-based; details: at 1 µM
[6] = tested on: Hepatocyte growth factor receptor (Homo sapiens), P08581 [Y1235D]; assay: as §1; assay type: cell-based; details: at 1 µM
[7] = molecular target: Hepatocyte growth factor receptor (Homo sapiens, UniProt P08581); assay: as §1; assay type: cell-based; details: at 1 µM
[8] = molecular target: Serine/threonine-protein kinase N1 (Homo sapiens, UniProt Q16512); details: at 10 µM
[9] = molecular target: Tyrosine-protein kinase Fgr (Homo sapiens) (UniProt P09769); assay: Selectivity interaction (KinomeScan (DiscoverX)) EUB0000695a FGR; details: at 100 nM
[10] = molecular target: Casein kinase I isoform delta (Homo sapiens, UniProt P48730); assay: Selectivity interaction (KinomeScan (DiscoverX)) EUB0000607a CSNK1D; details: at 10 µM
[11] = molecular target: T1, Tyrosine-protein kinase receptor TYRO3 (Homo sapiens) (UniProt Q06418); assay: Selectivity interaction (SelectScreen profiling (Invitrogen)) EUB0000607a TYRO3; details: at 2 µM
T1 sequence (whole entry): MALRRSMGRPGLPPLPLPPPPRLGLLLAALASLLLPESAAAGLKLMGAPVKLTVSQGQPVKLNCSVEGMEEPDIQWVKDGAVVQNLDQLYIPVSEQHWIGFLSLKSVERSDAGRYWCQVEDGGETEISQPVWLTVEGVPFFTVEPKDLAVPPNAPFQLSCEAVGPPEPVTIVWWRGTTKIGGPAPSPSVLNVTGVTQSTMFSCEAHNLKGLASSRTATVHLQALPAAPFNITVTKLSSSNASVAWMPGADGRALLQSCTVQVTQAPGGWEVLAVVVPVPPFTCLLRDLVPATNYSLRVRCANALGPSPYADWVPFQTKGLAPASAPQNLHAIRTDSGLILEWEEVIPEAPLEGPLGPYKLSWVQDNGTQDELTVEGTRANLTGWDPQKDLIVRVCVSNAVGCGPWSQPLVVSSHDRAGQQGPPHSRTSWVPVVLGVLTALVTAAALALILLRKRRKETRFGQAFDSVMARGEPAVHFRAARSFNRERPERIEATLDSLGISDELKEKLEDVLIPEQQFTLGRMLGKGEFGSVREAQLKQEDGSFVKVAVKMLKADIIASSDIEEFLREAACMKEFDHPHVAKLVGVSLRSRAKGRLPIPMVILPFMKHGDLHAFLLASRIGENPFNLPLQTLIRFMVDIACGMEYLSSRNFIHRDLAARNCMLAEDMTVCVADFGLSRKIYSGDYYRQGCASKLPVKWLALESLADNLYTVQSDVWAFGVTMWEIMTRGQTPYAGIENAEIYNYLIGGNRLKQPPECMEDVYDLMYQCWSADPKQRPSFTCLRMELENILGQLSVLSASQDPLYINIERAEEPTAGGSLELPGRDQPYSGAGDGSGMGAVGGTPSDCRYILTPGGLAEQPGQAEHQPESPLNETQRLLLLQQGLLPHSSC

[12] = molecular target: Inactive tyrosine-protein kinase PEAK1 (Homo sapiens) (UniProt Q9H792); assay: Selectivity interaction (Kinase panel (Z-LYTE Assay)) EUB0001632a PEAK1; details: at 10 µM
[13] = molecular target: T2, Ephrin type-B receptor 1 (Homo sapiens) (UniProt P54762); assay: Selectivity interaction (ProQinase) EUB0000171b EPHB1
T2 sequence (whole entry): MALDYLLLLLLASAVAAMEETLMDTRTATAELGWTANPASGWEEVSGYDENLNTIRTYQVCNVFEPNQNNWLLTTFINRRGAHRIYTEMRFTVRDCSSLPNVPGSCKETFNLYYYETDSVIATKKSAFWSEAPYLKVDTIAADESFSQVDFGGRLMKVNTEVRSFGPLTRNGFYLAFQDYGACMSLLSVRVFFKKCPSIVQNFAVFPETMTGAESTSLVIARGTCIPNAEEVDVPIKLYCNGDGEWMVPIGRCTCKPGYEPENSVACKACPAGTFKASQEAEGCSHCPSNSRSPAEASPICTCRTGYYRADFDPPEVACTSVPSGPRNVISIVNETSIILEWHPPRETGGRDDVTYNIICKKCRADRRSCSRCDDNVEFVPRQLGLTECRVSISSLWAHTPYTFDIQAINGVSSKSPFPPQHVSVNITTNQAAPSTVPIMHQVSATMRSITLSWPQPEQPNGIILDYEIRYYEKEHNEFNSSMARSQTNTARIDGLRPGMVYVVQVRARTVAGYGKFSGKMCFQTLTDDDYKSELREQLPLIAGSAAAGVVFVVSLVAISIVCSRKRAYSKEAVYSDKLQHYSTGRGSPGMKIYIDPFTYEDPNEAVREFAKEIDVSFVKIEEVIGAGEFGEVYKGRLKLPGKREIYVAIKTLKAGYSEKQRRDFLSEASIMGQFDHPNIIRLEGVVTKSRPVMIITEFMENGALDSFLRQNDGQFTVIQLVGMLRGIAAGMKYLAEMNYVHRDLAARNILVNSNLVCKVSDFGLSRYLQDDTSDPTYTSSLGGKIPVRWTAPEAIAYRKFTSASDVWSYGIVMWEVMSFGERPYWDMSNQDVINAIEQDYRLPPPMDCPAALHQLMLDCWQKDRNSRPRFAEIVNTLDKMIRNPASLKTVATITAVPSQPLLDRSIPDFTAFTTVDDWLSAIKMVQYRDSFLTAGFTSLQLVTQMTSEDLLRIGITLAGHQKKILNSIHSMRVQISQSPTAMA

Sequence of Hepatocyte growth factor receptor (Homo sapiens), P08581 [M1250T] (P08581 whole entry M1250T): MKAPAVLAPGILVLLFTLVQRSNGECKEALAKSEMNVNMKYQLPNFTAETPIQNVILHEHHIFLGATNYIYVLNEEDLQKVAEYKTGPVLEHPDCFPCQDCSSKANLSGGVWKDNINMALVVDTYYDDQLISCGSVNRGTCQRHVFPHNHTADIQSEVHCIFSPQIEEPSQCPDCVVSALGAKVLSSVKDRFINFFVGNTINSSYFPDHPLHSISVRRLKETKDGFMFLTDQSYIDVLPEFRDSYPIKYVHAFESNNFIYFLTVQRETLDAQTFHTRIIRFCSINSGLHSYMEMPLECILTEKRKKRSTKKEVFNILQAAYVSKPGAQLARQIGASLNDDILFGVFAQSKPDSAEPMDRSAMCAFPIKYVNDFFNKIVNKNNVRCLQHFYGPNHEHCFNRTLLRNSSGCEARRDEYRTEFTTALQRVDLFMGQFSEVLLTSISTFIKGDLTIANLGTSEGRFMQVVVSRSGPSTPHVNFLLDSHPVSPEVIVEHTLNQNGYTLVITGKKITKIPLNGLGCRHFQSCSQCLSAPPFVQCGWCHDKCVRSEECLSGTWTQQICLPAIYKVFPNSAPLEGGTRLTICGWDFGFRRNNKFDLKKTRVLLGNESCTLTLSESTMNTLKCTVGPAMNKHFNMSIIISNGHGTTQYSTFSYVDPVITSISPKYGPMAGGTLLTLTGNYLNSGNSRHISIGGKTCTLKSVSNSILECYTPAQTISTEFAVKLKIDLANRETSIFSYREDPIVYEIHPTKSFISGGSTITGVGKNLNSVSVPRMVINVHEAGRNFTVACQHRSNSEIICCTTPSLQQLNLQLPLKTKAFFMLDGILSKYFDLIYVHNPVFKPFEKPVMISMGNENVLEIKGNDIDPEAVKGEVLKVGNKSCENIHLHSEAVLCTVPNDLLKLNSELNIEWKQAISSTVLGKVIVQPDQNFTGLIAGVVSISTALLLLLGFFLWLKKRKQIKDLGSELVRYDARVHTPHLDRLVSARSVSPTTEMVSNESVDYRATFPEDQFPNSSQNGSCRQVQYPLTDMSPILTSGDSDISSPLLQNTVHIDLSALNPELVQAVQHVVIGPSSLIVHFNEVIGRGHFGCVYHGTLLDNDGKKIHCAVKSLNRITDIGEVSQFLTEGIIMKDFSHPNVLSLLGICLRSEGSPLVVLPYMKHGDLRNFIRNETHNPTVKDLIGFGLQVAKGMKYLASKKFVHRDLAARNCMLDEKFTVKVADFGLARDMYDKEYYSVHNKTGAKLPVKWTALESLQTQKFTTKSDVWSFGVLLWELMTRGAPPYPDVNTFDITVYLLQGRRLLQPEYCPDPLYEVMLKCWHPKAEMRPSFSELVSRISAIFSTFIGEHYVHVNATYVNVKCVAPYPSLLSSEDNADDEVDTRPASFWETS
Sequence of Hepatocyte growth factor receptor (Homo sapiens), P08581 [Y1235D] (P08581 whole entry Y1235D): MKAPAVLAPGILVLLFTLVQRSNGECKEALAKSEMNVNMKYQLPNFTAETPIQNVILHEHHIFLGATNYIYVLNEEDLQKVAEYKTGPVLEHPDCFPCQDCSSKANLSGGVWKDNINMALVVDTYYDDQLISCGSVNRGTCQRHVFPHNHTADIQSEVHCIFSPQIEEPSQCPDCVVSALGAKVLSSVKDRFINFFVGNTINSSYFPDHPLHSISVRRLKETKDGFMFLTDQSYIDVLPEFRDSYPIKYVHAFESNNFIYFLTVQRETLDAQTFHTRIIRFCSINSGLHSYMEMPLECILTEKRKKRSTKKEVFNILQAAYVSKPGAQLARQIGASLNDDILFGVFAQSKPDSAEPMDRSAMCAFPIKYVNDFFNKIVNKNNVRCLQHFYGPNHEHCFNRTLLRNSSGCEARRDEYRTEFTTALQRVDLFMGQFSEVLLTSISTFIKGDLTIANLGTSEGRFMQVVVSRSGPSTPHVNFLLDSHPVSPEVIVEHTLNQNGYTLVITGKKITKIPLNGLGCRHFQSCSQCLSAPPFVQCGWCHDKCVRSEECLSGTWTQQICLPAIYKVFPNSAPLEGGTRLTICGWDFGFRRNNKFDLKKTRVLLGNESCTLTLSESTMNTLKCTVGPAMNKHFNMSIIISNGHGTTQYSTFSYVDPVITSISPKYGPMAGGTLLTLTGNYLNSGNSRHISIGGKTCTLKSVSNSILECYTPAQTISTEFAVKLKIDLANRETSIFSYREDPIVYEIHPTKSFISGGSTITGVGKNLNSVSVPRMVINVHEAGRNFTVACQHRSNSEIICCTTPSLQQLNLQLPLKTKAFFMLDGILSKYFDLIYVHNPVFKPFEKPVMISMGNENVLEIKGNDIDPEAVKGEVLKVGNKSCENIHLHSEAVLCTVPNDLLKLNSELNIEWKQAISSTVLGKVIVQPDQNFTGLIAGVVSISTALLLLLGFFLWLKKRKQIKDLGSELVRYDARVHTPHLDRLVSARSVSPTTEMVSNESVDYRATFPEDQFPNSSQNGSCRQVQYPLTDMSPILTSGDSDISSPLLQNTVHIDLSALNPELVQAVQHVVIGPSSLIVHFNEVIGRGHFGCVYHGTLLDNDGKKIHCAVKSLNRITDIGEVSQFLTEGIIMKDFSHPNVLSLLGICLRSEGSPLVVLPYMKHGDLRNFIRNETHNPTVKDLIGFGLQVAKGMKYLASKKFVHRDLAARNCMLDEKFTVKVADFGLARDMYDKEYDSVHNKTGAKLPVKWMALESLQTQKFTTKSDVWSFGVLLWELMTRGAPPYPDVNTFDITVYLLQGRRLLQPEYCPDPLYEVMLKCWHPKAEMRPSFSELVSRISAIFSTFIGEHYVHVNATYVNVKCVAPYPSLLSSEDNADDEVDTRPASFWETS
Sequence of Vascular endothelial growth factor receptor 3 (P35916 whole entry): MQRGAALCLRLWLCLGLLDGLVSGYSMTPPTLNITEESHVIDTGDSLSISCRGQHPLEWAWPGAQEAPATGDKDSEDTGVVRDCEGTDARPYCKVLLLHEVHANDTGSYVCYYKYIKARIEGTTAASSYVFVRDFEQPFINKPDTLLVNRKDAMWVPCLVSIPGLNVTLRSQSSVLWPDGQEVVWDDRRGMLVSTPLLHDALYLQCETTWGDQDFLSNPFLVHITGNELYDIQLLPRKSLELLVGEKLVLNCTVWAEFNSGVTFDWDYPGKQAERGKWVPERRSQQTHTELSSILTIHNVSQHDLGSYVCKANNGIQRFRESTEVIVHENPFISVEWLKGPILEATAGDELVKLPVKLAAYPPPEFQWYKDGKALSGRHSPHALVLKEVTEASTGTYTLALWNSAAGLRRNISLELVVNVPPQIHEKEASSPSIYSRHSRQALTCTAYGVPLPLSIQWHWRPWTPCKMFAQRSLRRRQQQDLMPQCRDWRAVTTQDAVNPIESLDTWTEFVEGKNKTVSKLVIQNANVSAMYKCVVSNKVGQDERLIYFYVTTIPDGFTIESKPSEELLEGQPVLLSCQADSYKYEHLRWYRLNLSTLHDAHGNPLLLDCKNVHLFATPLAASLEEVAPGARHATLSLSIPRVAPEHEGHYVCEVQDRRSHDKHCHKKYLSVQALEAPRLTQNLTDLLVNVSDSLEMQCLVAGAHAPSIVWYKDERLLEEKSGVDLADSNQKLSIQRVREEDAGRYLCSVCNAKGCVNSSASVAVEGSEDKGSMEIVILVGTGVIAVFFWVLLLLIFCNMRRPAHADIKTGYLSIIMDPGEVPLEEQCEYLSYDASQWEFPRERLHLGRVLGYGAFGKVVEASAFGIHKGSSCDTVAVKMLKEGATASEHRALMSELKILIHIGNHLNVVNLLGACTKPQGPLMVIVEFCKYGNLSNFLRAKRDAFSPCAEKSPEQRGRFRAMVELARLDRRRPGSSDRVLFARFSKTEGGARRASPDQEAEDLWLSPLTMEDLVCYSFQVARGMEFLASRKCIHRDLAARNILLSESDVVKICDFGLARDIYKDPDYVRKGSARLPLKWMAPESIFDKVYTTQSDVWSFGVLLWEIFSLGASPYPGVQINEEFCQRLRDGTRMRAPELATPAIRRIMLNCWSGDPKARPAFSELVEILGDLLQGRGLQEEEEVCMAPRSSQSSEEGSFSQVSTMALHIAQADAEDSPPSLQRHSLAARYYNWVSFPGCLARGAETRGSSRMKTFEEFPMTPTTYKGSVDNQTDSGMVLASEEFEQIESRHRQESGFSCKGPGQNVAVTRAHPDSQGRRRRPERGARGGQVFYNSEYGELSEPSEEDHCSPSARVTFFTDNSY
Sequence of Serine/threonine-protein kinase N1 (Q16512 2-942 limits assumed): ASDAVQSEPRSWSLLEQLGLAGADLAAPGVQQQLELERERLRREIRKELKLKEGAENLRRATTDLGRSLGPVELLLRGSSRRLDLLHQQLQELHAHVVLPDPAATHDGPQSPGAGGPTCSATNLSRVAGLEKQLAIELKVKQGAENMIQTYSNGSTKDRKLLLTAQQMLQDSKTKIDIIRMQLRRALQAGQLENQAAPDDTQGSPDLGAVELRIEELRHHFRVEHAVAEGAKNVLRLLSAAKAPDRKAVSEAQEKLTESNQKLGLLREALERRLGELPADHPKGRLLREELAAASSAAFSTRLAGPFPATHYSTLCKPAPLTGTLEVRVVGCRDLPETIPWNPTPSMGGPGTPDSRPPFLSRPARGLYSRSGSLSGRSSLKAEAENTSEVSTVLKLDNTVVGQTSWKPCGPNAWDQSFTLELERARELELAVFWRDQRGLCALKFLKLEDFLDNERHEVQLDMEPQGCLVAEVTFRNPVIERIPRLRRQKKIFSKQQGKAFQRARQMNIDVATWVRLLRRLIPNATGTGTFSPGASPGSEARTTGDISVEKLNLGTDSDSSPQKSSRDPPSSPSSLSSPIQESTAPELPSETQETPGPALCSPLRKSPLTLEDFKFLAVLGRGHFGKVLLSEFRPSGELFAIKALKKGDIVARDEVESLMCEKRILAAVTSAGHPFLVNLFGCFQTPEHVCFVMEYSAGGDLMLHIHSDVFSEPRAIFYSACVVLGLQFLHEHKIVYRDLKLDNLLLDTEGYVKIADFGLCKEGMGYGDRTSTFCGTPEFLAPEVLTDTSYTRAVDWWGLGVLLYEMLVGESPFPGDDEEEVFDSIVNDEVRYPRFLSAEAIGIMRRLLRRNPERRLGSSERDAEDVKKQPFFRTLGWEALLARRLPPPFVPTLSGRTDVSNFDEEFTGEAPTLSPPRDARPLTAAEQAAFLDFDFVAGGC

CN(C)CCCOc1ccc(-c2cc(NCCCn3cccn3)nc(S(C)(=O)=O)n2)cc1
dTM [1]: < 2 K

COCC(=O)NC/C=C/c1ccc2ncnc(Nc3ccc(Oc4ccc(C)nc4)c(C)c3)c2c1 [CP-724714]
% of control [2]: 100%
% of control [3]: 46%

Cc1cnc(Nc2ccc(F)cc2Cl)nc1-c1c[nH]c(C(=O)N[C@H](CO)c2cccc(Cl)c2)c1
% of inhibition [4]: 8%

CN(C)C/C=C/C(=O)Nc1ccc(C(=O)N2CCCC(Nc3ncc(Cl)c(-c4c[nH]c5ccccc45)n3)C2)cc1 (centres undefined)
% of control [5]: 69%
% of control [6]: 69%
% of control [7]: 84%

Cc1cc([C@@H](C)Nc2ccccc2C(=O)O)c2nc(N3CCOCC3)cc(=O)n2c1 [AZD-6482]
% of control [8]: 100%

Cc1cc(F)c(C(=O)Nc2cccc(-c3nncn3C(C)C)n2)cc1-n1cnc(C2CC2)c1
% of control [9]: 96%

CNC(=O)Nc1ccc(-c2nc(N3CC4CCC(C3)O4)c3cnn(C4CCC5(CC4)OCCO5)c3n2)cc1
% of control [10]: 92%
% of inhibition [11]: 9%

Cn1cc(-n2cnc3c(NCc4nc5cc(Cl)c(Cl)cc5[nH]4)nc(N4CCOCC4)nc32)cn1
% of control [12]: 11.7%

C=CC(=O)Nc1cccc(C(=O)Nc2ccc(Nc3cc(-c4[nH]c(SC)nc4C)ccn3)cc2)c1
% of control ([13]; at 1 µM): 83%
% of control ([13]; at 5 µM): 82%
